Activity calls are given as the source filed them. The rule behind the calls is not given here.

What all share (assay type): functional, cell-based
Experiment [1] concerns PC-3. Put plainly: Antimigratory activity against human PC3 cells assessed as inhibition of cell migration after 24 hrs by wound healing assay. The settings on record: PC-3, 24 h.
The subject of experiment [2] is PC-3. Description: Antimigratory activity against human PC3 cells assessed as migrated cells measured under microscope at 37 uM after 24 hrs by wound healing assay relative to control.
Experiment [3] relates to PC-3. Description: Antiinvasive activity against human PC3 cells assessed as inhibition of cells invaded across basement membrane extract at 50 uM by calcein-acetomethylester fluorescence analysis.

As for `C=C1CC[C@H](C(C)C)[C@@H]2[C@H]1[C@H]1CC(=C)[C@@H](O)CC[C@@](C)(OC(C)=O)[C@@H]2O1`, the IC50 in the experiment with PC-3 [1] (read-out: IC50) and in the experiment with PC-3 [1] (read-out: pIC50 (converted)) was 44 µM each time.

`CC(=O)O[C@]1(C)CC[C@H](C(C)C)[C@@H]2[C@H]1[C@H]1C[C@]3(C)CCC[C@@](C)(O3)[C@@H]2O1`: the IC50 with PC-3 [1] (read-out: IC50) and with PC-3 [1] (read-out: pIC50 (converted)) was 52 µM throughout.

`C=C1CC[C@H](C(C)C)[C@@H]2[C@H]1[C@H]1CC(=C)[C@@H](OC(C)=O)CC[C@@](C)(OC(C)=O)[C@@H]2O1`: the IC50 in the experiment with PC-3 [1] (read-out: IC50) and with PC-3 [1] (read-out: pIC50 (converted)) was 36 µM in each case.

Turning to `C=C1CC[C@H](C(C)C)[C@@H]2[C@H]1[C@H]1CC(=C)[C@@H](OC(=O)NCCCCCCCC)CC[C@@](C)(O)[C@@H]2O1`, the IC50 in the experiment on PC-3 [1] (read-out: IC50) and with PC-3 [1] (read-out: pIC50 (converted)) was 122 µM each time.

Turning to `C=C1CC[C@H](C(C)C)[C@@H]2[C@H]1[C@H]1CC(=C)[C@@H](OC(=O)Nc3ccccc3)CC[C@@](C)(O)[C@@H]2O1`, the IC50 in the experiment with PC-3 [1] (read-out: IC50) and with PC-3 [1] (read-out: pIC50 (converted)) was 57 µM each time.

As for `C=C1CC[C@H](C(C)C)[C@@H]2[C@H]1[C@H]1CC(=C)[C@@H](OC(=O)NCCCCC)CC[C@@](C)(O)[C@@H]2O1`, the IC50 in the experiment with PC-3 [1] (read-out: IC50) and with PC-3 [1] (read-out: pIC50 (converted)) was 43 µM in each case.

As to `C=C1CC[C@H](C(C)C)[C@@H]2[C@H]1[C@H]1CC(=C)[C@@H](OC(=O)NCCCC)CC[C@@](C)(O)[C@@H]2O1`, the result in the experiment on PC-3 [2] and with PC-3 [3] was Active. Moreover, the IC50 in the experiment with PC-3 [1] (read-out: IC50) and in the experiment on PC-3 [1] (read-out: pIC50 (converted)) was 37 µM in each case.

In the case of `C=C1CC[C@H](C(C)C)[C@@H]2[C@H]1[C@H]1CC(=C)[C@@H](OC(=O)N(Cc3ccccc3)C(=O)NCc3ccccc3)CC[C@@](C)(O)[C@@H]2O1`, the IC50 in the experiment on PC-3 [1] (read-out: IC50) and in the experiment on PC-3 [1] (read-out: pIC50 (converted)) was 30 µM throughout. The result in the experiment with PC-3 [3] was Active.

Consider `C=CCNC(=O)N(CC=C)C(=O)N(CC=C)C(=O)O[C@H]1CC[C@@](C)(O)[C@@H]2O[C@H](CC1=C)[C@H]1C(=C)CC[C@H](C(C)C)[C@H]12`, for which the IC50 in the experiment on PC-3 [1] (read-out: IC50) and with PC-3 [1] (read-out: pIC50 (converted)) was 97 µM each time.

As for `C=C1CC[C@H](C(C)C)[C@@H]2[C@H]1[C@H]1CC(=C)[C@@H](OC(=O)NCCCCl)CC[C@@](C)(O)[C@@H]2O1`, the IC50 in the experiment on PC-3 [1] (read-out: IC50) and in the experiment on PC-3 [1] (read-out: pIC50 (converted)) was 67 µM throughout.

`C=C1C[C@H]2O[C@H]([C@H]3[C@@H]2[C@]2(CC[C@@H]3C(C)C)CO2)[C@](C)(O)CC[C@@H]1OC(=O)N(Cc1ccccc1)C(=O)NCc1ccccc1`: the IC50 in the experiment with PC-3 [1] (read-out: IC50) and in the experiment on PC-3 [1] (read-out: pIC50 (converted)) was 70 µM throughout.

Consider `C=C1C[C@H]2O[C@H]([C@H]3[C@@H]2[C@]2(CC[C@@H]3C(C)C)CO2)[C@](C)(O)CC[C@@H]1OC(=O)NCCCC` (relative stereo), for which the IC50 with PC-3 [1] (read-out: IC50) and in the experiment with PC-3 [1] (read-out: pIC50 (converted)) was 90 µM throughout.

`C=C1C[C@H]2O[C@H]([C@H]3[C@@H]2[C@]2(CC[C@@H]3C(C)C)CO2)[C@](C)(O)CC[C@@H]1O` (relative stereo): the IC50 in the experiment on PC-3 [1] (read-out: IC50) and in the experiment with PC-3 [1] (read-out: pIC50 (converted)) was 160 µM each time. Further, the result in the experiment on PC-3 [3] was Active.

`C=C1CC[C@H](C(C)C)[C@@H]2[C@H]1[C@H]1C[C@](C)(O)[C@@H](OC)CCC(C)(O)[C@@H]2O1` (single isomer, unassigned) [SCLEROPHYTIN F METHYL ETHER]: the IC50 in the experiment with PC-3 [1] (read-out: IC50) and with PC-3 [1] (read-out: pIC50 (converted)) was 59 µM each time.

With `C=C1CC[C@H](C(C)C)[C@@H]2[C@H]1[C@H]1C/C(C)=C\CC[C@@](C)(O)[C@@H]2O1` [6Z-CLADIELLIN], the IC50 in the experiment with PC-3 [1] (read-out: IC50) and in the experiment on PC-3 [1] (read-out: pIC50 (converted)) was 84 µM in each case.

Regarding `C=C1CC[C@H](C(C)C)[C@@H]2[C@H]1[C@@H]1CC(=C)[C@@H](O)CC[C@](C)(O)[C@H]2O1` [CLADIELLISIN], the IC50 in the experiment on PC-3 [1] (read-out: IC50) and with PC-3 [1] (read-out: pIC50 (converted)) was 88 µM each time. The result with PC-3 [3] was Active.

Turning to `C=C1C[C@H]2O[C@H]([C@@H]3[C@@H](C(C)C)[C@H](O)C[C@@](C)(OC(C)=O)[C@@H]32)[C@](C)(OC(C)=O)CC[C@@H]1O` [KLYSIMPLEXIN E], the IC50 in the experiment with PC-3 [1] (read-out: IC50) and in the experiment on PC-3 [1] (read-out: pIC50 (converted)) was 125 µM in each case.

Turning to `CC(=O)O[C@]1(C)CC[C@H](C(C)C)[C@@H]2[C@H]1[C@H]1C[C@](C)(O)[C@@H](O)CC[C@@](C)(OC(C)=O)[C@@H]2O1` [KLYSIMPLEXIN G], the IC50 in the experiment with PC-3 [1] (read-out: IC50) and in the experiment on PC-3 [1] (read-out: pIC50 (converted)) was 16 µM each time.

In the case of `CCCC(=O)O[C@]1(C)CC[C@H](C(C)C)[C@@H]2[C@H]1[C@H]1C[C@](C)(O)[C@@H](O)CC[C@@](C)(OC(C)=O)[C@@H]2O1` [PACHYCLADIN A], the IC50 in the experiment on PC-3 [1] (read-out: IC50) and with PC-3 [1] (read-out: pIC50 (converted)) was 5 µM in each case.

In the case of `C=C1C[C@H]2O[C@H]([C@@H]3[C@@H](C(C)C)[C@H](O)C[C@@](C)(OC(=O)CCC)[C@@H]32)[C@](C)(OC(C)=O)CC[C@@H]1O` [PACHYCLADIN B], the IC50 in the experiment with PC-3 [1] (read-out: IC50) and in the experiment on PC-3 [1] (read-out: pIC50 (converted)) was 88 µM in each case.

Turning to `C=C1CC[C@H](C(C)C)[C@@H]2[C@H]1[C@H]1CC(=C)[C@@H](OC(C)=O)CC[C@@](C)(O)[C@@H]2O1` [PACHYCLADIN C], the IC50 with PC-3 [1] (read-out: IC50) and in the experiment on PC-3 [1] (read-out: pIC50 (converted)) was 56 µM each time.

For the compound `C=C1CC[C@H](C(C)C)[C@@H]2[C@H]1[C@H]1CC(=C)[C@]3(O)CC[C@@](C)(O3)[C@@H]2O1` [PACHYCLADIN D], the IC50 with PC-3 [1] (read-out: IC50) and in the experiment with PC-3 [1] (read-out: pIC50 (converted)) was 75 µM throughout.

As to `C=C1C[C@H]2O[C@H]([C@H]3[C@@H]2[C@](C)(OC(C)=O)CC[C@@H]3C(C)C)[C@@]2(C)CC[C@]1(O)O2` [PACHYCLADIN E], the IC50 in the experiment on PC-3 [1] (read-out: IC50) and in the experiment on PC-3 [1] (read-out: pIC50 (converted)) was 64 µM in each case.

With `C=C1CC[C@H](C(C)C)[C@@H]2[C@H]1[C@H]1C[C@](C)(O)[C@@H](OCC)CC[C@@](C)(O)[C@@H]2O1` [PATAGONICOL], the IC50 in the experiment on PC-3 [1] (read-out: IC50) and in the experiment with PC-3 [1] (read-out: pIC50 (converted)) was 76 µM each time.

`C=C1CC[C@H](C(C)C)[C@@H]2[C@H]1[C@H]1C[C@](C)(O)[C@@H](O)CC[C@@](C)(O)[C@@H]2O1` [SCLEROPHYTIN A]: the IC50 with PC-3 [1] (read-out: IC50) and in the experiment on PC-3 [1] (read-out: pIC50 (converted)) was 84 µM each time.

Regarding `C=C1CC[C@H](C(C)C)[C@@H]2[C@H]1[C@H]1C[C@](C)(O)[C@@H](O)CC[C@@](C)(OC(C)=O)[C@@H]2O1` [SCLEROPHYTIN B], the IC50 was 160 µM in the experiment with PC-3 [1] (read-out: IC50) and 159 µM in the experiment on PC-3 [1] (read-out: pIC50 (converted)).

The record behind these values is ChEMBL document CHEMBL1759878, “Design of semisynthetic analogues and 3D-QSAR study of eunicellin-based diterpenoids as prostate cancer migration and invasion inhibitors” (Eur J Med Chem, 2011).
